*1 amine or outer side, *2 acyl side, *3 side chain or, on linkers, in order; H or OH if unused. Where a SMILES comes first, the peptide text is derived from it. Side-chain parts run from the residue outwards. [ ]: non-standard residue; d: D form. The star is where a group is joined. C20 diacid = O=C(O)CCCCCCCCCCCCCCCCCCC(=O)*; C18 diacid = O=C(O)CCCCCCCCCCCCCCCCC(=O)*; γGlu = O=C(O)[C@H](CCC(=O)[*:2])N[*:1]; εLys = N[C@@H](CCCCN[*:1])C(=O)[*:2]; Aib = CC(C)(N)C(=O)O
How the values were obtained:
[1] = target: T1, human GLP-1 receptor (Homo sapiens, UniProt P43220); experiment: In vitro functional potency (CRE luciferase; whole cells), human GLP-1R; type: cell-based; conditions: BHK CRE luc2P hGLP-1R whole cells; Table 2; read-out: hGLP-1R CRE Luc EC50
T1 construct: expressed in transfected cells; host or cells: BHK cells (parent line BHKTS13) containing CRE luciferase
T1 sequence (P43220 24-463): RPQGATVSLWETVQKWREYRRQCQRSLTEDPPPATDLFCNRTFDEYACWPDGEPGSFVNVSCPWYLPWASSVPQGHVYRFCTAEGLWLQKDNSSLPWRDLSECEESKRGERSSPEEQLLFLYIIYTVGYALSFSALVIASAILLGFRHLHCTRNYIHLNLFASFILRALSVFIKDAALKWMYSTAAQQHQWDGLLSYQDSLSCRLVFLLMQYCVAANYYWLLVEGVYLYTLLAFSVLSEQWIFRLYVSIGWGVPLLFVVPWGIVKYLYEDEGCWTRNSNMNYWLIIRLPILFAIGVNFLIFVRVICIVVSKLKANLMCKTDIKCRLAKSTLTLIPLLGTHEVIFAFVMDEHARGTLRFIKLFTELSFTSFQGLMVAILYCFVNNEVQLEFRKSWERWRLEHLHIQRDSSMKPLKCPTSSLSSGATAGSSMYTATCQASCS

[2] = target: T2, human Gcg receptor (Homo sapiens, UniProt P47871); experiment: In vitro functional potency (CRE luciferase; whole cells), human GcgR; type: cell-based; conditions: BHK CRE luc2P hGcgR whole cells; Table 2; read-out: hGcgR CRE Luc EC50
T2 construct: expressed in transfected cells; host or cells: BHK cells (parent line BHKTS13) containing CRE luciferase
T2 sequence (P47871 26-477): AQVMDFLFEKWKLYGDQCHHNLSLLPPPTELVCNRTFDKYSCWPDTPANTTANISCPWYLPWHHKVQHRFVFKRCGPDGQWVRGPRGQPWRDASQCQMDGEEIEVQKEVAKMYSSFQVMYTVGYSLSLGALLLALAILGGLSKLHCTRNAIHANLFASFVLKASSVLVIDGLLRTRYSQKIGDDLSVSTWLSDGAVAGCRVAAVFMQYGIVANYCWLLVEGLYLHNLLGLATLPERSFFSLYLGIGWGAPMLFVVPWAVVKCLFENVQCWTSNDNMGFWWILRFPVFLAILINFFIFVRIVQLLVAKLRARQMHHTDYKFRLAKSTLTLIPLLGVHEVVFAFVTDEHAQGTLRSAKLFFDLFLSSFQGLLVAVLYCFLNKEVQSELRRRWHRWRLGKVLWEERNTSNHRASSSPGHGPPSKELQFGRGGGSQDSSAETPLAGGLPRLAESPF
Procedure: The purpose of this example is to test the functional activity, or potency, of the compounds in vitro at the human and mouse GLP-1, GIP, and Gcg receptors. The in vitro functional potency is the measure of target receptor activation in a whole cell assay.
In vitro functional potency was determined by measuring the response of the target receptor in a reporter gene assay in individual cell lines. The assay was performed in stably transfected BHK cell lines that expresses one of the following G-protein coupled receptors: human GLP-1 receptor, human GIP receptor, human Gcg receptor, mouse GLP-1 receptor, mouse GIP receptor, or mouse Gcg receptor; and where each cell line contains the DNA for the cAMP response element (CRE) coupled to a promoter and the gene for firefly luciferase (CRE luciferase). When the respective receptor is activated, it results in the production of cAMP, which in turn results in expression of the luciferase protein. When assay incubation is completed, luciferase substrate (luciferin) is added resulting in the enzymatic conversion of luciferin to oxyluciferin and producing bioluminescence. The luminescence is measured as the readout for the assay.
The cells lines used in these assays were BHK cells with BHKTS13 as a parent cell line. The cell lines were derived from a clone containing the CRE luciferase element and were established by further transfection with the respective receptor to obtain the relevant cell line.
The cells were cultured at 37° C. with 5% CO2 in Cell Culture Medium. They were aliquoted and stored in liquid nitrogen. The cells were kept in continuous culture and were seeded out the day before each assay.
GLP-1R and GcgR Cell Culture Medium consisted of DMEM medium with 10% FBS, 500 µg/mL G418, and 300 µg/mL hygromycin. GIPR Cell Culture Medium consisted of DMEM medium with 10% FBS, 400 µg/mL G418, and 300 µg/mL hygromycin. Assay Buffer consisted of DMEM w/o phenol red, 10 mM Hepes, 1× Glutamax, 1% ovalbumin, and 0.1% Pluronic F-68.
• 1) Cells were plated at 5000 cells/well and incubated overnight in the assay plate. • 2) Cells were washed once in DPBS. • 3) Stocks of the test compounds and reference compounds in concentrations ranging from 100-300 pM were diluted 1:150 in Assay Buffer.
The data from the microtiter plate reader was first regressed in an Excel in order to calculate the x-axis, log scale concentrations based on the individual test compound's stock concentration and the dilutions of the assay. […] The software performs a non-linear regression (log(agonist) vs response). A minimum of two replicates was measured for each sample. The reported values are averages of the replicates.

[3] = Pharmacokinetic study in minipigs, i.v. administration; design: species or system Göttingen minipigs; conditions: female, Göttingen, minipig, in vivo, iv; minipigs, i.v. administration, harmonic mean; read-out: Terminal half-life t1/2 (converted)
Outline: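 Terminal half-life, reported as harmonic mean, came from non-compartmental fits of plasma levels measured by antibody assay or LCMS over up to 14 days. Dosing was i.v., typically 1.5-2 nmol/kg, through implanted caval catheters in fasted female Göttingen minipigs of 16-35 kg.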

[4] = Maximal efficacy study in DIO mice, daily s.c. dose titration for up to 60 days (body weight, food intake); type: in vivo, C57BL/6J male mice; conditions: for Absolute BW (grams) Day 0: Day 0 (baseline); for Absolute BW (grams) Day 0 / Absolute BW (grams) Last day of treatment / Change in BW (%) Last day of treatment: mean ± SEM; for Absolute BW (grams) Last day of treatment / Change in BW (%) Last day of treatment / Average food intake per mouse (grams/day): s.c. once daily; for Absolute BW (grams) Last day of treatment / Change in BW (%) Last day of treatment: dose titration of Table 4, last day of treatment; for Average food intake per mouse (grams/day): dose titration of Table 4, mean ± SEM, n = 1-2
Procedure: The purpose of this example is to assess the in vivo effect of selected triple agonists on pharmacodynamic parameters in diet-induced obese (DIO) mice. The animals were treated once daily via subcutaneous injection with a liquid formulation of the triple agonist to be tested to assess effects on body weight, foot intake, and glucose tolerance.
C57BL/6J male mice were purchased from Jackson Laboratories at approximately 8 weeks of age. Mice were group housed and fed a high-fat, high-sugar diet from Research Diets (D12331). Mice were maintained on this diet for 12 weeks prior to initializing the pharmacology studies. Mice exceeding a measured body weight of 50 grams were considered diet-induced obese (DIO) and included in pharmacology studies. Mice were exposed to a controlled 12 h:12 h light:dark cycle at ambient room temperature (22° C.) with ab libitum access to food and water. Studies were approved by and performed according to the guidelines of the Institutional Animal Care and Use Committee of the University of Cincinnati.
All compounds in the study were formulated in the following buffer: 50 mM phosphate; 70 mM sodium chloride; 0.05% Tween-80, pH 7.4. Dosing solutions were formulated in glass vials and stored at 2-8° C. Dosing solutions were brought to room temperature before dosing and returned to 2-8° C. after dosing.
DIO mice were distributed into groups (n=8 per group) such that statistical variations in the mean and standard deviations of fat mass and body weight were minimized between groups. The animals were grouped to receive treatment as follows: Vehicle or GLP-1/GIP/Gcg receptor triple agonists as described herein, where vehicle is 50 mM phosphate, 70 mM sodium chloride; 0.05% (v/v) Tween-80, pH 7.4. The test compounds were dissolved in the vehicle, to stock concentrations of […], then diluted 50- to 200-fold in the vehicle to achieve the desired dosing solution concentrations. Animals were dosed subcutaneously once daily in the morning for each day of treatment with dosing solution at a volume of 2-5 μL per gram of body weight as necessary to achieve the desired dose (e.g. 0.3 nmol/kg, 1.0 nmol/kg, or 3.0 nmol/kg).
Body weight (BW) and food intake were measured immediately prior to dosing each day. The percent change in body was calculated individually for each mouse based on initial body weight prior to the first injection.
In one study, DIO mice received a daily subcutaneous dose for up to 60 days of one of the following: vehicle, Compound No. 21, Compound No. 30, or Compound No. 33. The dose of each compound was up-titrated to maximal efficacy based on the titration schedule included in Table 4. Mice that achieved body weight normalization, defined as a body weight of 22.5 g or less, were voluntarily removed from the study. All triple agonist compounds tested resulted is substantially greater reductions of body weight and food intake than vehicle. […] This may be explained by the similar GLP-1R and GIPR in vitro potency but reduced in vitro GcgR potency of Compound No. 21 compared to Compound No. 30 and Compound No. 33 when investigated with the protocol described in Example 2 except using the mouse-specific receptors.

SMILES	EC50 [1] [pM]	EC50 [2] [pM]	half-life [3] [h]	Absolute BW (grams) Day 0 [4] [grams]	Absolute BW (grams) Last day of treatment [4] [grams]	Change in BW (%) Last day of treatment [4] [%]	Average food intake per mouse (grams/day) [4] [grams/day]
CC[C@H](C)[C@H](NC(=O)[C@H](CO)NC(=O)[C@H](Cc1ccc(O)cc1)NC(=O)[C@H](CC(=O)O)NC(=O)[C@H](CO)NC(=O)[C@@H](NC(=O)[C@H](Cc1ccccc1)NC(=O)[C@@H](NC(=O)CNC(=O)[C@H](Cc1c[nH]cn1)NC(=O)C(C)(C)NC(=O)[C@@H](N)Cc1c[nH]cn1)[C@@H](C)O)[C@@H](C)O)C(=O)N[C@@H](Cc1ccc(O)cc1)C(=O)N[C@@H](CC(C)C)C(=O)N[C@@H](CCC(=O)O)C(=O)N[C@@H](CCCCNC(=O)[C@@H](N)CCCCNC(=O)[C@@H](N)CCCCNC(=O)CC[C@H](NC(=O)CCCCCCCCCCCCCCCCC(=O)O)C(=O)O)C(=O)N[C@@H](CCCCN)C(=O)N[C@@H](Cc1ccc(O)cc1)C(=O)N[C@@H](C)C(=O)NC(C)(C)C(=O)N[C@@H](CCC(=O)O)C(=O)N[C@@H](Cc1ccccc1)C(=O)N[C@H](C(=O)N[C@@H](CCC(N)=O)C(=O)N[C@@H](Cc1c[nH]c2ccccc12)C(=O)N[C@@H](CC(C)C)C(=O)N[C@@H](CC(C)C)C(=O)N[C@@H](CCC(=O)O)C(=O)NCC(=O)NCC(=O)N1CCC[C@H]1C(=O)N[C@@H](CO)C(=O)N[C@@H](CO)C(=O)NCC(=O)N[C@@H](C)C(=O)N1CCC[C@H]1C(=O)N1CCC[C@H]1C(=O)N1CCC[C@H]1C(=O)N[C@@H](CO)C(N)=O)C(C)C [Compound No. 38] (H-H[Aib]HGTFTSDYSIYLEK([εLys-εLys-γGlu-C18 diacid])KYA[Aib]EFVQWLLEGGPSSGAPPPS-NH2)	2.8	6.4	–	–	–	–	–
CC[C@H](C)[C@H](NC(=O)[C@H](CO)NC(=O)[C@H](Cc1ccc(O)cc1)NC(=O)[C@H](CC(=O)O)NC(=O)[C@H](CO)NC(=O)[C@@H](NC(=O)[C@H](Cc1ccccc1)NC(=O)[C@@H](NC(=O)CNC(=O)[C@H](Cc1c[nH]cn1)NC(=O)C(C)(C)NC(=O)[C@@H](N)Cc1c[nH]cn1)[C@@H](C)O)[C@@H](C)O)C(=O)N[C@@H](Cc1ccc(O)cc1)C(=O)N[C@@H](CC(C)C)C(=O)N[C@@H](CCC(=O)O)C(=O)N[C@@H](CCCCNC(=O)[C@@H](N)CCCCNC(=O)[C@@H](N)CCCCNC(=O)CC[C@H](NC(=O)CCCCCCCCCCCCCCCCCCC(=O)O)C(=O)O)C(=O)N[C@@H](CCCCN)C(=O)N[C@@H](C)C(=O)N[C@@H](C)C(=O)NC(C)(C)C(=O)N[C@@H](CCC(=O)O)C(=O)N[C@@H](Cc1ccccc1)C(=O)N[C@H](C(=O)N[C@@H](CCC(N)=O)C(=O)N[C@@H](Cc1c[nH]c2ccccc12)C(=O)N[C@@H](CC(C)C)C(=O)N[C@@H](CC(C)C)C(=O)N[C@@H](CCC(=O)O)C(=O)NCC(=O)NCC(=O)N1CCC[C@H]1C(=O)N[C@@H](CO)C(=O)N[C@@H](CO)C(=O)NCC(=O)N[C@@H](C)C(=O)N1CCC[C@H]1C(=O)N1CCC[C@H]1C(=O)N1CCC[C@H]1C(=O)N[C@@H](CO)C(N)=O)C(C)C [Compound No. 33] (H-H[Aib]HGTFTSDYSIYLEK([εLys-εLys-γGlu-C20 diacid])KAA[Aib]EFVQWLLEGGPSSGAPPPS-NH2)	–	–	47	54.9 ± 2.6	24.8 ± 1.4	−54.5 ± 3.5	1.38 ± 0.25
CC[C@H](C)[C@H](NC(=O)[C@H](CO)NC(=O)[C@H](Cc1ccc(O)cc1)NC(=O)[C@H](CC(=O)O)NC(=O)[C@H](CO)NC(=O)[C@@H](NC(=O)[C@H](Cc1ccccc1)NC(=O)[C@@H](NC(=O)CNC(=O)[C@H](Cc1c[nH]cn1)NC(=O)C(C)(C)NC(=O)[C@@H](N)Cc1c[nH]cn1)[C@@H](C)O)[C@@H](C)O)C(=O)N[C@@H](CC(C)C)C(=O)N[C@@H](CC(C)C)C(=O)N[C@@H](CCC(=O)O)C(=O)N[C@@H](CCCCNC(=O)[C@@H](N)CCCCNC(=O)[C@@H](N)CCCCNC(=O)CC[C@H](NC(=O)CCCCCCCCCCCCCCCCC(=O)O)C(=O)O)C(=O)N[C@@H](CCC(N)=O)C(=O)N[C@@H](C)C(=O)N[C@@H](C)C(=O)N[C@@H](Cc1c[nH]cn1)C(=O)N[C@@H](CCC(=O)O)C(=O)N[C@@H](Cc1ccccc1)C(=O)N[C@H](C(=O)N[C@@H](CCC(N)=O)C(=O)N[C@@H](Cc1c[nH]c2ccccc12)C(=O)N[C@@H](CC(C)C)C(=O)N[C@@H](CC(C)C)C(=O)N[C@@H](CCC(=O)O)C(=O)NCC(=O)NCC(=O)N1CCC[C@H]1C(=O)N[C@@H](CO)C(=O)N[C@@H](CO)C(=O)NCC(=O)N[C@@H](C)C(=O)N1CCC[C@H]1C(=O)N1CCC[C@H]1C(=O)N1CCC[C@H]1C(=O)N[C@@H](CO)C(=O)O)C(C)C [Compound No. 56] (H-H[Aib]HGTFTSDYSILLEK([εLys-εLys-γGlu-C18 diacid])QAAHEFVQWLLEGGPSSGAPPPS-OH)	–	6.4	–	–	–	–	–
CC[C@H](C)[C@H](NC(=O)[C@H](CO)NC(=O)[C@H](Cc1ccc(O)cc1)NC(=O)[C@H](CC(=O)O)NC(=O)[C@H](CO)NC(=O)[C@@H](NC(=O)[C@H](Cc1ccccc1)NC(=O)[C@@H](NC(=O)CNC(=O)[C@H](Cc1c[nH]cn1)NC(=O)C(C)(C)NC(=O)[C@@H](N)Cc1c[nH]cn1)[C@@H](C)O)[C@@H](C)O)C(=O)N[C@@H](Cc1ccc(O)cc1)C(=O)N[C@@H](CC(C)C)C(=O)N[C@@H](CCC(=O)O)C(=O)N[C@@H](CCCCNC(=O)[C@@H](N)CCCCNC(=O)[C@@H](N)CCCCNC(=O)CC[C@H](NC(=O)CCCCCCCCCCCCCCCCCCC(=O)O)C(=O)O)C(=O)N[C@@H](CCCCN)C(=O)N[C@@H](Cc1ccc(O)cc1)C(=O)N[C@@H](C)C(=O)NC(C)(C)C(=O)N[C@@H](CCC(=O)O)C(=O)N[C@@H](Cc1ccccc1)C(=O)N[C@H](C(=O)N[C@@H](CCC(N)=O)C(=O)N[C@@H](Cc1c[nH]c2ccccc12)C(=O)N[C@@H](CC(C)C)C(=O)N[C@@H](CC(C)C)C(=O)N[C@@H](CCC(=O)O)C(=O)NCC(=O)NCC(=O)N1CCC[C@H]1C(=O)N[C@@H](CO)C(=O)N[C@@H](CO)C(=O)NCC(=O)N[C@@H](C)C(=O)N1CCC[C@H]1C(=O)N1CCC[C@H]1C(=O)N1CCC[C@H]1C(=O)N[C@@H](CO)C(N)=O)C(C)C [Compound No. 30] (H-H[Aib]HGTFTSDYSIYLEK([εLys-εLys-γGlu-C20 diacid])KYA[Aib]EFVQWLLEGGPSSGAPPPS-NH2; N-terminus assumed)	–	–	78	56.2 ± 1.3	22.2 ± 0.3	−60.5 ± 0.4	1.39 ± 0.13

From patent US20230391845A1, “GLP-1, GIP AND GLUCAGON RECEPTOR TRIPLE AGONISTS” (priority 2020, published 2023)
